Each structure is given as a SMILES string. “Also recorded” adds a separate entry of the source. Structures can show the parent of a compound that is named as a salt.

The subject of series [1] is triple-negative MDA-MB-231 human breast cancer cell line. Nature of the series: cells. It is filed as cell-based.
The nature of the next series: in vitro. It is filed as cell-based. The following applies: human.
Series [2] has as its system MCF-7 cells. Put plainly: Colony formation (clonogenic) assay, MCF-7. It counts as cell-based, human. The following applies: MCF-7, concentration 2 μM, 10 days. How it is done:
(§1) The influence of glycosides on colony formation by MCF-7 or MDA-MB-231 cells was tested by the clonogenic assay. Cell density: 1 × 10^3 for MDA-MB-231 and 0.3 × 10^3 for MCF-7 cells per well; cell culture: MEM media, 10% FBS, 10,000 U/mL of penicillin, and 10,000 μg/mL of streptomycin supplemented or not (control) with different concentration of glycosides; incubation conditions: 10 days, 37 °C, atmosphere with 5% CO2; obtained: visible to eye colonies (at least 50 cells per colony); fixation with methanol (25 min); staining with 0.5% solution of crystal violet (25 min); washing and air-drying of plates.

For series [3], the system named is MCF-7 human breast cancer cell line. Put plainly: cells. It counts as cell-based.
Another series relates to MDA-MB-231 cells. Nature of the series: Colony formation (clonogenic) assay, MDA-MB-231. It is filed as cell-based, human. The following applies: MDA-MB-231, concentration 2 μM, 10 days. The procedure:
as §1

The subject of series [4] is T-47D human breast cancer cell line. Nature of the series: cells. It counts as cell-based. The following applies: Homo sapiens, T47D, 24 h, read-out: Cytotoxicity, IC50, T-47D.
Series [5] has as its system MCF-7 cells. Put plainly: Wound scratch migration assay, MCF-7. It is filed as cell-based, human. The following applies: MCF-7, concentrations below EC50, 72 h. The procedure: Attached to special migration plate plastic bottom MCF-7 or MDA-MB-231 cells were separated by a silicone insert (Culture-insert 2 Well 24, ibiTreat). After removing an insert, gap between the cells was 500 ± 50 μm. Cell debris and floating cells were deleted by washing twice with PBS; 10 μM of 5 mM initial solution of CFDA SE ((5,6)-carboxyfluorescein succinimidyl ester) (LumiTrace CFDA SE kit, Lumiprobe, Moscow, Russia) in DMSO was dissolved in PBS and added to cells for 5 min at 37 °C; after washing twice with PBS, the fresh culture medium was added. Then, cells were treated with various concentrations of glycosides or culture medium only (vehicle control) and left for 24 and 72 h. Cell migration into the wound area was observed under a fluorescence microscope (MIB-2-FL, LOMO, Russia) with objective 10× magnification.

Another series has as its system human erythrocytes. Put plainly: Hemolytic activity against human erythrocytes. It counts as cell-based. The following applies: human erythrocytes. How it is done: Human blood (B(III) Rh+) was used to obtain erythrocytes by centrifuging 450× g three times for 5 min with phosphate-buffered saline (PBS) (pH 7.4) at 4 °C on centrifuge LABOFUGE 400R (Heraeus, Hanau, Germany). Ice-cold PBS (pH 7.4) was used for resuspension of erythrocytes residue to a final optical density of 1.5 at 700 nm, which was kept on ice. Then, 20 µL of tested compound solution or control—djakonovioside A1 [5]—were added to 180 µL of erythrocyte suspension in V-bottom 96-well plates and exposed for 1 h at 37 °C. Next, centrifugation at 900× g for 10 min on laboratory centrifuge LMC-3000 (Biosan, Riga, Latvia), led to layers’ separation, and 100 µL of supernatant was carefully decanted and transferred into new flat-plate each. The values of erythrocyte lysis were measured on microplate photometer Multiskan FC (Thermo Fisher Scientific, Waltham, MA, USA) at λ = 570 nm as hemoglobin concentration in supernatant. The effective dose, causing lysis of 50% erythrocytes (ED50), was calculated with SigmaPlot 14.0 software. All the experiments were carried out in triple repetitions, p ≤ 0.05.

The mark [6] stands for this setting: ratio of IC50 for healthy (MCF-10A) and cancer cells.

In general, IC50 refers to the point on the concentration scale where inhibition reaches its midpoint. The EC50 is the midpoint of the concentration-response curve. As to `C=C(C)CCCC1(C)OC(=O)C23CCC4C(=CCC5C(C)(C)C(OC6OCC(OS(=O)(=O)O)C(O)C6OC6OC(CO)C(OC7OC(COS(=O)(=O)O)C(O)C(OC8OC(COS(=O)(=O)O)C(O)C(OC)C8O)C7O)C(O)C6O)CCC45C)C2(C)CC(OC(C)=O)C13` [djakonovioside E1, 3β-O-[6-O-sodium sulfate-3-O-methyl-β-D-glucopyranosyl-(1→3)-6-O-sodium sulfate-β-D-glucopyranosyl-(1→4)-β-D-glucopyranosyl-(1→2)-4-O-sodium sulfate-β-D-xylopyranosyl]-16β-acetoxyholosta-7,25-dien], the IC50 in series [1] (Homo sapiens, MDA-MB-231, 24 h, read-out: Cytotoxicity, IC50, MDA-MB-231) was 2190 ± 170 nM; in series [3] (Homo sapiens, MCF7, 24 h, read-out: Cytotoxicity, IC50, MCF-7), 1520 ± 140 nM; in series [4] it was > 50000 nM. Moreover, the “Selectivity Index (SI), MDA-MB-231” value in series [1] (setting [6]) is given as >22.83. For the same compound, in “in vitro”, the IC50 at 24 h is > 50000 nM. Further, the “inhibitory effect on the formation of colonies” value in the series on MCF-7 cells [2] is listed as 30.73 ± 0.49 % of the control; in the series on MDA-MB-231 cells, 35.68 ± 2.00 % of the control. Moreover, in series [3] (Homo sapiens, MCF7, MTT, 48 h incubation, read-out: EC50, MCF-7 cells, 48 h incubation (antiproliferative effect)), the EC50 amounted to 780 ± 320 nM. The “Selectivity Index (SI), MCF-7” value in series [3] (setting [6]) is given as >32.89. Moreover, the “migration of MCF-7 cells (in words)” value with MCF-7 cells [5] is “reliable blockage of the migration”. The HC50 with human erythrocytes (Erythrocyte, 1 h at 37 °C, dose causing lysis of 50% erythrocytes, read-out: ED50, Erythrocytes (hemolytic activity)) amounted to 21.7 ± 0.94 µM. In addition, in the series on human erythrocytes (concentration range up to 50 µM), the “hemolytic activity (in words)” value is given as “weakly hemolytic; also recorded: low hemolytic activity”.

These data come from article PMC10744391, “Sulfated Triterpene Glycosides from the Far Eastern Sea Cucumber Cucumaria djakonovi: Djakonoviosides C1, D1, E1, and F1; Cytotoxicity against Human Breast Cancer Cell Lines; Quantitative Structure–Activity Relationships” (Marine Drugs, 2023).
